According to KR20140032201A, “로리오라이드를 유효성분으로 함유하는 세포 노화 억제용 조성물” (영남대학교 산학협력단, priority 2012, dated 2014):
Where two headings read alike, the source gives them in different places.

Legend:
[1] = test system: human fibroblasts (사람 섬유아세포); assay: MTT cytotoxicity, human fibroblasts; format: cell-based; settings: 10 ug/ml
[2] = test system: human umbilical vein endothelial cells (제대정맥혈관내피세포); assay: MTT cytotoxicity, umbilical vein endothelial cells; format: cell-based; settings: 10 ug/ml
[3] = test system: human fibroblasts (사람 섬유아세포); assay: Adriamycin-induced senescence, SA-β-gal activity staining, human fibroblasts; format: cell-based
[4] = test system: human umbilical vein endothelial cells (제대정맥혈관내피세포); assay: Adriamycin-induced senescence, SA-β-gal activity staining, umbilical vein endothelial cells; format: cell-based; settings: 500 nM adriamycin 4 h, then 10 ug/ml, 3 days
[5] = test system: reactive oxygen species in human fibroblasts (활성산소, 사람 섬유아세포); assay: Intracellular reactive oxygen species by DCF flow cytometry, adriamycin-treated human fibroblasts; format: cell-based; settings: 500 nM adriamycin 4 h, 3 days, DCF fluorescence
[6] = test system: human fibroblasts with replicative senescence (복제노화가 유도된 사람 섬유아세포); assay: Replicative senescence, SA-β-gal activity staining, old human fibroblasts; format: cell-based; settings: increasing concentrations
[7] = test system: Caenorhabditis elegans (꼬마선충); settings: C. elegans, literature; cited from earlier work
[8] = test system: cellular senescence (세포노화); settings: cited from earlier work
[9] = test system: mouse model (생쥐모델); settings: literature; cited from earlier work

Molecule: CC1(C)CC(O)CC2(C)OC(=O)C=C12 (single isomer, unassigned; (-)) [로리오라이드[(-)-loliolide], (-)-loliolide]
- cytotoxicity (MTT) [1]: 세포독성이 관찰되지 않았다
- cytotoxicity (MTT) [2]: 세포독성이 관찰되지 않았다
- SA-β-gal activity staining increased by adriamycin ([3]; 500 nM adriamycin 4 h, then 10 ug/ml, 3 days): 감소되었으나
- concentration dependence of inhibition of adriamycin-increased SA-β-gal activity ([3]; increasing concentrations): 농도를 증가시킬수록 감소함
- SA-β-gal activity staining increased by adriamycin [4]: 변화가 없었다
- reactive oxygen species increased by adriamycin [5]: 활성산소도 감소시킴
- SA-β-gal activity increased in old cells (replicative senescence) [6]: 농도 의존적으로 늙은 세포에서 증가된 SA-β-gal 활성을 감소시킴

Molecule: Nc1ccc(S(=O)(=O)c2ccc(N)cc2)cc1 [4,4'-diaminodiphenylsulfone]
- healthspan [7]: 건강수명을 늘리는
- occurrence of ageing-related diseases [7]: 노화관련 질환의 발생을 억제하며

Molecule: CC(=O)N[C@@H](CS)C(=O)O [N-아세틸시스테인(N-acetylcysteine), N-acetylcysteine]
- inhibition of cellular senescence ([8]; literature; NAC)): 세포노화 억제 효능이 있는 것으로 보고된
- inhibition of cellular senescence ([8]; literature): 세포노화를 억제한다

Molecule: CS(=O)(=O)Nc1ccc([N+](=O)[O-])cc1OC1CCCCC1 [NS398]
- inhibition of cellular senescence ([8]; literature): 세포노화를 억제한다

Molecule: CO[C@H]1C[C@@H]2CC[C@@H](C)[C@@](O)(O2)C(=O)C(=O)N2CCCC[C@H]2C(=O)O[C@H]([C@H](C)C[C@@H]2CC[C@@H](O)[C@H](OC)C2)CC(=O)[C@H](C)/C=C(\C)[C@@H](O)[C@@H](OC)C(=O)[C@H](C)C[C@H](C)/C=C/C=C/C=C/1C [라파마이신(rapamycin), rapamycin]
- inhibition of cellular senescence ([8]; literature): 세포노화 억제 효능이 있는 것으로 보고된
- healthspan [9]: 건강수명을 늘리는
- occurrence of ageing-related diseases [9]: 노화관련 질환의 발생을 억제하며

Molecule: O=C1O[C@H]([C@@H](O)CO)C(O)=C1O [비타민 C]
- inhibition of cellular senescence ([8]; literature): 세포노화를 억제한다

Molecule: epifriedelanol [에피프리에델라놀(epifriedelanol)]
- inhibition of cellular senescence ([8]; literature): 세포노화를 억제한다
